Results published in patent US20140378374A1, “METHODS OF TREATMENT” (GlaxoSmithKline Intellectual Property (No.2) Limited, priority 2013, published 2014).
Where two headings read alike, the source gives them in different places.

Legend:
patients with T2D and RI = format: in vivo, human; settings: for Model-adjusted change from baseline A1C, LS mean (SE): ANCOVA
Protocol: Therapies for type 2 diabetes mellitus (T2DM) with renal impairment (RI) are limited and may require dose adjustment. This 52-week randomized, double blind, active controlled, Phase III parallel group study examined efficacy/safety of QW Albi injections (30 mg uptitrated to 50 mg if needed) vs daily Sita in patients with T2D and RI (eGFR≧15 and <90 mL/min/1.73 m^2) and A1C 7-10% on lifestyle (11% of subjects) or metformin (Met), thiazoldinedone (TZD), sulfonylureas (SU), or any combination (89% of patients). […] Primary endpoint was A1C change at week 26 for Albi vs Sita (noninferiority with subsequent superiority analysis). Eligible subjects were men or non pregnant, nonlactating women, 18 years of age or older, with a historical diagnosis of T2DM who were experiencing inadequate glycemic control on their current regimen of diet and exercise or their antidiabetic therapy of metformin, TZD, SU, or any combination of these OAD medications.

[1] = Population pharmacokinetics, Phase 3 pooled analysis; format: in vivo, human
Excerpt: During each Phase 3 study, 4 blood samples for population pharmacokinetic evaluation were obtained. In the study of patients with CKD, 2 predose samples were obtained at weeks 8 and 16 and 2 postdose samples were obtained at least 2 days after dosing between weeks 8 and 10 and weeks 16 and 20. In the other 3 studies, 2 predose samples were obtained at weeks 8 and 24 and 2 postdose samples were obtained at least 2 days after dosing between weeks 8 and 10 and weeks 24 and 28. The blood collection and storage procedure were the same as described above.
Plasma samples were analyzed for albiglutide by using a validated enzyme-linked immunosorbent assay (ELISA) and were diluted 100-fold with sample buffer before analysis. Albiglutide was captured using a rabbit anti-human GLP-1 (7-36) amide and detected using a rabbit anti-HSA conjugated to biotin. ELISA experiments were performed using the Furoninc® 96 well plate (Nunc, cat. #437796) with the following steps. […] The microtiter plate was washed 5 times with […] wash buffer (10 mM Sodium Phosphate, 150 mM NaCl, 0.05% Tween 20, pH 7.5) using plate washer; 2) […] blocking buffer of SuperBlock in PBS (SuperBlock (Pierce, cat. #37515) in PBS, 5.0% Rabbit Plasma) was added to each well, sealed and incubated with constant shaking for approximately 1.5 hour (±30 minutes) at ambient room temperature and the microtiter plate washed; 3) 100 mL of either standards, quality controls (QCs) or samples were added per well, sealed, incubated and washed; 4) 100 mL of Detection Antibody solution of Biotin Labelled Rabbit polyclonal to Human Serum Albumin (NOVUS Biologicals, cat. # NB 100-1674) was added per well, sealed, incubated and washed; 5) 100 mL of Reporter Tag solution (Streptavidin-HRPO Conjugate, Caltag, cat. # SA1007) was added per well, sealed, incubated and washed; 6) 100 mL of Development Substrate Pico (SuperSignal ELISA, Pierce, cat. #37070) was added, incubated and the plate read using plate reader (Wallac 1420 Victor Multilabel Counter, Perkin Elmer Life Sciences, Boston, Mass.). […]

[2] = system: patients with type 2 diabetes; settings: head-to-head trial; cited from earlier work
[3] = Week 26, Moderate RI (eGFR 30-59)
[4] = Week 26, Severe RI (eGFR 15-29)

Albiglutide: recombinant fusion protein of 2 copies of modified human GLP-1 (fragment 7-36(A8G)) genetically fused in series to recombinant human serum albumin
Week 26 A1C, mean (patients with T2D and RI; Any RI (eGFR 15-89)): 7.27%
Week 26 A1C, mean (patients with T2D and RI; Mild RI (eGFR 60-89 mL/min/1.73 m2)): 7.23%
Week 26 A1C, mean (patients with T2D and RI; Moderate RI (eGFR 30-59)): 7.37%
A1C change at week 26, Albi vs Sita, superiority analysis (patients with T2D and RI; P=0.0003): superior
Week 26 A1C, mean (patients with T2D and RI; Severe RI (eGFR 15-29)): 6.97%
A1C<7% achieved, patients (patients with T2D and RI; Week 26): 42.6%
FPG change (patients with T2D and RI; Week 26): -25.6 mg/dL
weight change (patients with T2D and RI; Week 26): -0.8 kg
Model-adjusted change from baseline A1C, LS mean (SE) (patients with T2D and RI; Week 26, Any RI (eGFR 15-89)): −0.83%
Model-adjusted change from baseline A1C, LS mean (SE) (patients with T2D and RI; Week 26, Mild RI (eGFR 60-89)): −0.80%
Model-adjusted change from baseline A1C, LS mean (SE) (patients with T2D and RI; [3]): −0.83%
Model-adjusted change from baseline A1C, LS mean (SE) (patients with T2D and RI; [4]): −1.08%
Change from baseline A1C, mean (SD) (patients with T2D and RI; Week 26, Any RI (eGFR 15-89)): −0.82%
Difference of LS means from sitagliptin (95% CI), A1C (patients with T2D and RI; Week 26, Any RI (eGFR 15-89)): 0.32%
Difference of LS means from sitagliptin (95% CI), A1C (patients with T2D and RI; Week 26, Any RI (eGFR 15-89), listed as Albi): −0.32%
Change from baseline A1C, mean (SD) (patients with T2D and RI; Week 26, Mild RI (eGFR 60-89)): −0.72%
Difference of LS means from sitagliptin (95% CI), A1C (patients with T2D and RI; Week 26, Mild RI (eGFR 60-89)): −0.13%
Change from baseline A1C, mean (SD) (patients with T2D and RI; [3]): −0.88%
Difference of LS means from sitagliptin (95% CI), A1C (patients with T2D and RI; [3]): −0.53%
Change from baseline A1C, mean (SD) (patients with T2D and RI; [4]): −1.08%
Difference of LS means from sitagliptin (95% CI), A1C (patients with T2D and RI; [4]): −0.47%
Adverse Event rate: diarrhea (patients with T2D and RI; in vivo): 8.8%
Adverse Event rate: nausea (patients with T2D and RI; in vivo): 4.8%
Adverse Event rate: vomiting (patients with T2D and RI; in vivo): 1.6%
Anti-Albi antibody rate (patients with T2D and RI; in vivo): 2.8%
Anti-Albi antibody, neutralizing (patients with T2D and RI; in vivo): 0%
Hypoglycemia rate (patients with T2D and RI; in vivo): 20.5%
Hypoglycemia, severe (number) (patients with T2D and RI; in vivo): 0
Injection site reaction rate (patients with T2D and RI; in vivo): 6.8%
On-therapy adverse event: Constipation (patients with T2D and RI; in vivo): 15 (6.0) n (%)
On-therapy adverse event: Diarrhea (patients with T2D and RI; in vivo): 22 (8.8) n (%)
On-therapy adverse event: Hypertension (patients with T2D and RI; in vivo): 10 (4.0) n (%)
On-therapy adverse event: Nasopharyngitis (patients with T2D and RI; in vivo): 13 (5.2) n (%)
On-therapy adverse event: Upper respiratory tract infection (patients with T2D and RI; in vivo): 9 (3.6) n (%)
On-therapy adverse event: Urinary tract infection (patients with T2D and RI; in vivo): 8 (3.2) n (%)
apparent clearance CL/F, typical value of the final population PK model ([1]; BW 90.7, eGFR 77.9, covariates body weight, eGFR, African heritage, insulin): 66.6 mL/h
decrease in clearance vs eGFR around 80 mL/min/1.73 m2 ([1]; patient with eGFR of 50 mL/min/1.73 m2): about 9%
decrease in clearance vs eGFR around 80 mL/min/1.73 m2 ([1]; typical patient with eGFR of 30 mL/min/1.73 m2): about 19%
nausea, percentage [2]: 10%
vomiting, percentage [2]: 5%
